Measured values reported in US9180115B2, “Cyclohexylamines” (Asana Biosciences, LLC, priority 2011, dated 2015).

Test system: sodium channel response in hTRPV1-N1E115 cells
Experiment: FLIPR membrane potential assay of sodium channel response in hTRPV1-N1E115 cells with or without heat (47° C.) activation
Type: cell-based
Details: for hTRPV1-N1E Nav 0.1 mM (% inhibition) 25° C. / hTRPV1-N1E Nav 1 mM (% inhibition) 25° C.: 25° C. (no heat activation); for hTRPV1-N1E Nav 0.1 mM (% inhibition) 47° C. / hTRPV1-N1E Nav 1 mM (% inhibition) 47° C.: 47° C. (heat activated); for IC50: read-out: hTRPV1-N1E IC50 (μM) 47° C.
Source text: In one embodiment, a modified FLIPR® (Fluorometric Imaging Plate Reader) based assay system was developed which is capable of discriminating between non-specific versus hTRPV1-mediated entry of test compounds. Advantageously, the assay system utilizes heat activated opening of hTRPV1 channels followed by an assessment of internal sodium channel block. The assay allows a permanently charged compound to selectively enter through opened hTRPV1 channels and that compound's potency in inhibiting sodium channels from the cytoplasm side of the same cell can be assessed and quantified.
The test compounds are diluted in the Assay Buffer and added to each well of a specific 384-well ‘compound plate’, which serves as a source plate for compound addition using the FLIPR® platform. The concentration of compounds in the compound-plate was adjusted to achieve the desired final concentration when added to the cells in the ‘cell-plate’. After completion of the dye incubation period, the dye loaded cell-plates and the compound source plates are inserted into the FLIPR® Tetra device with a 384 FLIPR® tip box (Molecular Devices, Inc.) according to manufacturer's instructions. The compounds are robotically added to the dye loaded cell-plates using software integral to the FLIPR® Tetra instrument.
Immediately following compound addition, hTRPV1 is activated, in one of the duplicate cell plates, by heating. Specifically, entire multi-well plate containing the compound-cells mixture is incubated at 47° C. for 10 minutes, after which they are returned to room temperature (about 25° C.) for a further 30 minutes. Heat activation of hTRPV1 was omitted from the replicate cell plate which was simply maintained at room temperature for the entire 40 minutes.
A membrane potential response is elicited in the dye- and compound-loaded cells by the addition of veratridine which is a known sodium channel ‘agonist’. As illustrated in an example herein, an agonist plate containing veratridine (Sigma) is prepared in advance and is inserted into suitable devices such as, e.g., the FLIPR® TETRA device for a “2nd addition” as instructed by the manufacturer. The concentration of veratridine in the ‘agonist plate’ was adjusted to achieve a final concentration of 100 μM when added to the cells in the cell-plate. Final concentrations of veratridine greater or lesser than 100 μM may also be used but the signal measured by the FLIPR® TETRA device or another suitable device may vary accordingly.
The exposure of the cells in the cell-plate to veratridine induces sodium channels in the cells to open and the resulting ion flux produces a membrane potential depolarization that is detected as a fluorescence signal by the FLIPR® Tetra Device. The activity of test compounds is determined by their ability to attenuate the veratridine-induced fluorescence signal, the most promising compounds are those that show an enhanced activity in the heat-activated cell plate over the non-heat-activated cell plate. This differential activity reflects enhanced compound uptake via the heat activated and open hTRPV1 channels and rests on the fact that sodium channel block requires test compounds to act from the cytoplasmic side of the cell membrane.
In vitro assays were developed for assessing the inhibition of sodium channel response with compounds following stimulation by heat (47° C.) in cells expressing hTRPV1.
(v) Membrane potential Assay to Assess Sodium Channel Function in hTRPV1-Expressing Cells • Cells were plated at 5000 per 50 μL [DMEM+10% FBS+300 μg/mL H\hygromycin] per well, in a 384 clear bottom poly-D-lysine coated plate and incubated at 37° C. and 5% CO2 for 48 hours. On the day of the assay, media were discarded gently and 30 μL of the dye [FMP blue dye was prepared in assay buffer] per well was added and dye-loading was allowed to proceed for 20 min at room temperature. […]

Structure (SMILES) | hTRPV1-N1E Nav 0.1 mM (% inhibition) 25° C. | hTRPV1-N1E Nav 0.1 mM (% inhibition) 47° C. | hTRPV1-N1E Nav 1 mM (% inhibition) 25° C. | hTRPV1-N1E Nav 1 mM (% inhibition) 47° C. | IC50 (47° C.) | hTRPV1-N1E Nav (% inhibition) 25° C., 0.5 mM (0.5 mM, 25° C.) | hTRPV1-N1E Nav (% inhibition) 47° C., 0.5 mM (0.5 mM, 47° C.) | hTRPV1-N1E Nav (% inhibition) 25° C., 5 mM (5 mM, 25° C.) | hTRPV1-N1E Nav (% inhibition) 47° C., 5 mM (5 mM, 47° C.)
CC(C[N+](C)(C)C1CCCCC1)OC(=O)c1cccc(C(C)C)c1.[I-] (centres unmarked) [Example 26, N-[2-((3-Isopropylbenzoyl)oxy)propyl]-N,N-dimethylcyclo-hexanaminium iodide] | 4 (N = 4) % | 88 (N = 4) % | 57 (N = 4) % | 89 (N = 4) % | 10 to 100 µM |  |  |  | 
CC(C[N+](C)(C)C1CCCCC1)OC(=O)c1ccc(C(C)C)cc1.[I-] (centres unmarked) [Example 4, N-[2-((4-isopropylbenzoyl)oxy)propyl]-N,N-dimethylcyclohexanaminium iodide] | 24 (N = 4) % | 86 (N = 4) % |  |  | 10 to 100 µM |  |  |  | 
Cc1cc(C)c(C(=O)O[C@H](C)C[N+](C)(C)C2CCCCC2)c(C)c1.[I-] [Example 25, (R)-N,N-Dimethyl-N-[2-((2,4,6-trimethylbenzoyl)oxy)propyl] cyclohexanaminium iodide] | 48 (N = 4) % |  | 89 (N = 4) % |  | 10 to 100 µM |  |  |  | 
CC(C[N+](C)(C)C1CCCCC1)OC(=O)c1ccc(F)cc1C(F)(F)F.[I-] (centres unmarked) [Example 15, N-[2-((4-Fluoro-2-(trifluoromethyl)benzoyl)oxy)propyl]-N,N-dimethyl-cyclohexanaminium iodide] | 6 (N = 4) % | 45 (N = 4) % | 59 (N = 4) % | 92 (N = 4) % | 100 to 1000 µM |  |  |  | 
Cc1cccc(C)c1C(=O)O[C@H](C)C[N+](C)(C)C1CCCCC1.[I-] [Example 24, (R)-N-[2-((2,6-Dimethylbenzoyl)oxy)propyl]-N,N-dimethyl-cyclohexanaminium iodide] | 22 (N = 4) % |  | 81 (N = 4) % |  | 10 to 100 µM |  |  |  | 
CC(C[N+](C)(C)C1CCCCC1)OC(=O)c1ccccc1F.[I-] (centres unmarked) [Example 8, N-[2-((2-Fluorobenzoyl)oxy)propyl]-N,N-dimethyl-cyclohexanaminium iodide] | 14 (N = 4) % | 38 (N = 4) % | 22 (N = 4) % | 53 (N = 4) % |  |  |  |  | 
Cc1ccsc1C(=O)OC(C)C[N+](C)(C)C1CCCCC1.[I-] (centres unmarked) [Example 37, N,N-Dimethyl-N-[2-((3-methylthiophene-2-carbonyl)oxy)propyl] cyclohexanaminium iodide] | 15 (N = 4) % | 31 (N = 4) % | 20 (N = 4) % | 70 (N = 4) % |  |  |  |  | 
CC(C[N+](C)(C)C1CCCCC1)OC(=O)c1ccc(C(F)(F)F)cc1.[I-] (centres unmarked) [Example 21, N,N-Dimethyl-N-[2-((4-(trifluoromethyl)benzoyl)oxy)propyl] cyclohexanaminium iodide] | 11 (N = 4) % | 57 (N = 4) % | 35 (N = 4) % | 96 (N = 4) % | 100 to 1000 µM |  |  |  | 
CC(C[N+](C)(C)C1CCCCC1)OC(=O)c1cc(Cl)cc(Cl)c1.[I-] (centres unmarked) [Example 19, N-[2-((3,5-Dichlorobenzoyl)oxy)propyl]-N,N-dimethyl-cyclohexanaminium iodide] | 25 (N = 4) % |  | 12 (N = 4) % | 52 (N = 4) % | 10 to 100 µM |  |  |  | 
CC(C[N+](C)(C)C1CCCCC1)OC(=O)c1ccsc1.[I-] (centres unmarked) [Example 33, N,N-Dimethyl-N-[2-((thiophene-3-carbonyl)oxy)propyl] cyclohexanaminium iodide] | 3 (N = 4) % | 36 (N = 4) % | 23 (N = 4) % | 57 (N = 4) % |  |  |  |  | 
CC[N+](CC)(CC(C)OC(=O)c1ccccc1)C1CCCCC1.[Cl-] (centres unmarked) [Example 3, N-[2-(benzoyloxy)propyl]-N,N-diethylcyclohexanaminium chloride] |  |  |  |  |  | 14 (N = 2, % | 19 (N = 2, % | 52 (N = 2, % | 67 (N = 2, %
Cc1cccc(C)c1C(=O)O[C@@H](C)C[N+](C)(C)C1CCCCC1.[I-] [Example 23, (S)-N-[2-((2,6-Dimethylbenzoyl)oxy)propyl]-N,N-dimethyl-cyclohexanaminium iodide] | 38 (N = 4) % |  | 76 (N = 4) % |  | 10 to 100 µM |  |  |  | 
Cc1cc(C)c(C(=O)OC(C)C[N+](C)(C)C2CCOCC2)c(C)c1.[I-] (centres unmarked) [Example 28, N,N-Dimethyl-N-[2-((2,4,6-trimethylbenzoyl)oxy)propyl]tetrahydro-2H-pyran-4-aminium iodide] | 0 (N = 4) % | 32 (N = 4) % | 5 (N = 4) % | 58 (N = 4) % |  |  |  |  | 
CC(C[N+](C)(C)C1CCCCC1)OC(=O)c1ccccc1C(F)(F)F.[I-] (centres unmarked) [Example 17, N-[2-((2-(Trifluoromethyl)benzoyl)oxy)propyl]-N,N-dimethylcyclo-hexanaminium iodide] | 4 (N = 4) % | 54 (N = 4) % | 72 (N = 4) % | 96 (N = 4) % | 100 to 1000 µM |  |  |  | 
CC(C)(C)c1ccc(C(=O)OCC[N+](C)(C)C2CCCCC2)cc1.[I-] [Example 43, N-[2-((4-(tert-butyl)benzoyl)oxy)ethyl]-N,N-dimethylcyclo-hexanaminium iodide] | 13 (N = 4) % | 78 (N = 4) % |  |  | 10 to 100 µM |  |  |  | 
CC(C[N+](C)(C)C1CCCCC1)OC(=O)c1cccc(C(F)(F)F)c1.[I-] (centres unmarked) [Example 16, N,N-Dimethyl-N-[2-((3-(trifluoromethyl)benzoyl)oxy)propyl] cyclohexanaminium iodide] | 31 (N = 4) % | 60 (N = 4) % | 50 (N = 4) % | 83 (N = 4) % | 100 to 1000 µM |  |  |  | 
CCc1ccccc1C(=O)OC(C)C[N+](C)(C)C1CCCCC1.[I-] (centres unmarked) [Example 44, N-[2-((2-Ethylbenzoyl)oxy)propyl]-N,N-dimethylcyclo-hexanaminium iodide] | 56 (N = 4) % | 89 (N = 4) % | 81 (N = 4) % | 96 (N = 4) % |  |  |  |  | 
CC(C[N+](C)(C)C1CCCCC1)OC(=O)c1cc2ccccc2s1.[I-] (centres unmarked) [Example 35, N-[2-((Benzo[b]thiophene-2-carbonyl)oxy)propyl]-N,N-dimethyl-cyclohexanaminium iodide] | 35 (N = 4) % | 74 (N = 4) % |  |  | 10 to 100 µM |  |  |  | 
